In brackets after ≈: the same amount, converted by molar mass. Structures can show the parent of a compound that is named as a salt.
Legend:
Type in all cases: cell-based
E. coli UBMS 88-1 Tet B = assay: microbe, parasite or virus in culture; conditions: E. coli UBMS 88-1 Tet B; 18 hours at 35° C.
E. faecalis ATCC 29212 = assay: MIC, agar dilution; conditions: E. faecalis ATCC 29212
S. aureus UBMS 90-3 = assay: MIC, agar dilution; conditions: S. aureus UBMS 90-3
S. aureus SMITH (MP) = assay: MIC, agar dilution; conditions: S. aureus SMITH (MP)
[1] = system: S. aureus UBMS 90-1 Tet M; assay: microbe, parasite or virus in culture; conditions: S. aureus UBMS 90-1 Tet M
E. coli BAJ9003 IMP MUT = assay: microbe, parasite or virus in culture; conditions: E. coli BAJ9003 IMP MUT
[2] = system: S. aureus UBMS 88-7 Tet K; assay: microbe, parasite or virus in culture; conditions: S. aureus UBMS 88-7 Tet K
[3] = system: S. aureus UBMS 88-5 Tet M; assay: microbe, parasite or virus in culture; conditions: S. aureus UBMS 88-5 Tet M
[4] = system: E. coli MC 4100 Tet sens.; assay: MIC, agar dilution
Enterococcus 12201 = assay: MIC, agar dilution; conditions: Enterococcus 12201
S. aureus UBMS 88-4 = assay: MIC, agar dilution; conditions: S. aureus UBMS 88-4
S. aureus NEMC 8769 = assay: MIC, agar dilution; conditions: S. aureus NEMC 8769
E. coli #311 (MP) = assay: MIC, agar dilution; conditions: E. coli #311 (MP)
[5] = system: Ps. acruginosa ATCC 27853; assay: MIC, agar dilution; conditions: Ps. acruginosa ATCC 27853
E. coli PRP1 Tet A = assay: microbe, parasite or virus in culture; conditions: E. coli PRP1 Tet A
S. aureus ATCC 29213 = assay: MIC, agar dilution; conditions: S. aureus ATCC 29213
[6] = system: S. aureus UBMS 90-2 Tet M; assay: microbe, parasite or virus in culture; conditions: S. aureus UBMS 90-2 Tet M
E. coli UBMS 89-1 Tet M = assay: microbe, parasite or virus in culture; conditions: E. coli UBMS 89-1 Tet M
E. coli J3272 Tet D = assay: microbe, parasite or virus in culture; conditions: E. coli J3272 Tet D
S. aureus ROSE (MP) = assay: MIC, agar dilution; conditions: S. aureus ROSE (MP)
S. mariescens FPOR 8733 = assay: MIC, agar dilution
E. coli UBMS 90-4 Tet M = assay: microbe, parasite or virus in culture; conditions: E. coli UBMS 90-4 Tet M
E. coli UBMS 90-5 = assay: MIC, agar dilution
S. aureus IVES 2943 = assay: MIC, agar dilution; conditions: S. aureus IVES 2943
E. coli ATCC 25922 = assay: MIC, agar dilution; conditions: E. coli ATCC 25922
E. coli J3272 Tet C = assay: microbe, parasite or virus in culture; conditions: E. coli J3272 Tet C
[7] = system: E. coli UBMS 89-2 Tet sens.; assay: MIC, agar dilution; conditions: E. coli UBMS 89-2 Tet sens.
S. aureus IVES 1 983 = assay: MIC, agar dilution; conditions: S. aureus IVES 1 983
E. coli J2175 = assay: MIC, agar dilution; conditions: E. coli J2175
[8] = system: S. hemolyticus AVHAH 88-3; assay: MIC, agar dilution; conditions: S. hemolyticus AVHAH 88-3

Row | Compound | MIC (E. coli UBMS 88-1 Tet B) [µg/mL] | MIC (E. faecalis ATCC 29212) [µg/mL] | MIC (S. aureus UBMS 90-3) [µg/mL] | MIC [1] [µg/mL] | MIC (E. coli BAJ9003 IMP MUT) [µg/mL] | MIC [2] [µg/mL] | MIC [3] [µg/mL] | MIC [4] [µg/mL] | MIC (Enterococcus 12201) [µg/mL] | MIC (S. aureus UBMS 88-4) [µg/mL] | MIC (S. aureus NEMC 8769) | MIC (E. coli #311 (MP)) [µg/mL] | MIC [5] [µg/mL] | MIC (E. coli PRP1 Tet A) [µg/mL] | MIC (S. aureus ATCC 29213) [µg/mL] | MIC [6] [µg/mL] | MIC (E. coli UBMS 89-1 Tet M) [µg/mL] | MIC (E. coli J3272 Tet D) [µg/mL] | MIC (S. aureus ROSE (MP)) [µg/mL] | MIC (S. mariescens FPOR 8733) [µg/mL] | other results
1 | [4S-(4alpha,12aalpha)]-4,7-Bis(dimethylamino)-1,4,4a,5,5a,6,11,12a-octahydro-3,10, 12,12a-tetrahydroxy-1,11-dioxo-9-[[(undecylamino)acetyl]amino]-2-naphthacenecarboxamide dihydrochloride | 32 | 2 | 0.5 | 16 | 1 | 2 | 16 | 2 | 4 | 0.5 | 0.5 µg/mL | 8 | > 32 | 32 | 1 | 4 | 16 | 32 | 16 | > 32 | MIC (S. aureus SMITH (MP)): 0.5 µg/mL; MIC (E. coli UBMS 90-4 Tet M): 32 µg/mL
2 | CCCCCCCNCC(=O)Nc1cc(N(C)C)c2c(c1O)C(=O)C1=C(O)[C@]3(O)C(=O)C(C(N)=O)=C(O)[C@@H](N(C)C)C3CC1C2 (stereo partly drawn) [J, [4S-(4alpha,12aalpha)]-4,7-Bis(dimethylamino)-9-[[(heptylamino)acetyl]amino]-l,4,4a,5,5a,6,11,12a-octahydro-3,10,12,12a-tetrahydroxy-1,11-dioxo-2-naphthacenecarboxamide dihydrochloride] | 2 |  |  | 1 | 0.25 | 1 | 0.5 | 1 | 0.5 | 0.5 | no | 2 | > 32 | 2 | 0.5 | 0.5 | 0.5 | 2 | 2 | 16 | MIC (E. coli UBMS 90-5): 2 µg/mL; MIC (S. aureus IVES 2943): 0.5 µg/mL; MIC (E. coli ATCC 25922): 2 µg/mL; MIC (E. coli J3272 Tet C): 2 µg/mL; MIC [7]: 2 µg/mL; MIC (S. aureus IVES 1 983): 1 µg/mL; MIC (E. coli J2175): 2 µg/mL; MIC [8]: 2 µg/mL; MIC (E. coli UBMS 90-4 Tet M): 2 µg/mL
3 | CN(C)c1cc(NC(=O)CNCC(F)(F)F)c(O)c2c1CC1CC3C(N(C)C)C(O)=C(C(N)=O)C(=O)C3(O)C(O)=C1C2=O (stereo not drawn) [S, [4S-(4alpha,12aalpha)]-4,7-Bis(dimethylamino)-1,4,4a,5,5a,6,11,12a-octahydro-3,10, 12,12a-tetrahydroxy-1,11-dioxo-9-[[[2,2,2-trifluoroethyl)amino]acetyl]amino-2-naphthacenecarboxamide] | 32 (≈ 52.3 µM) | 2 (≈ 3.27 µM) | 4 (≈ 6.54 µM) | 16 (≈ 26.2 µM) |  | 32 (≈ 52.3 µM) | 8 (≈ 13.1 µM) | 16 (≈ 26.2 µM) | 4 (≈ 6.54 µM) | 4 (≈ 6.54 µM) | 4 µg/mL (≈ 6.54 µM) | > 32 | > 32 |  | 4 (≈ 6.54 µM) | 4 (≈ 6.54 µM) | 32 (≈ 52.3 µM) |  |  | > 32 | MIC (E. coli UBMS 90-5): > 32 µg/mL; MIC (S. aureus IVES 2943): > 32 µg/mL; MIC (E. coli ATCC 25922): > 32 µg/mL; MIC [7]: > 32 µg/mL; MIC (S. aureus IVES 1 983): > 32 µg/mL; MIC (E. coli J2175): > 32 µg/mL; MIC [8]: 16 µg/mL (≈ 26.2 µM)
